Experimental data: paper PMC7309225, “Synthesis, Biodistribution, and Radiation Dosimetry of a Novel mGluR5 Radioligand: ^18F-AZD9272” (ACS Chemical Neuroscience, 2020)

How the values were obtained:
mGluR5 = assay: Brain PET in cynomolgus monkey (HRRT), VT by 2TC model and Logan GA; format: in vivo
Experimental: Two male cynomolgus monkeys (NHP1: 5460 g and NHP2: 7080 g) were used in this study. […] Anesthesia was induced by intramuscular injection of ketamine hydrochloride (approximately 10 mg/kg) at AFL and maintained by intravenous infusion of ketamine (4 mg/kg/h) and xylazine (0.4 mg/kg/h) with a pump. The NHP head was immobilized with a fixation device. […] Heart rate, blood pressure, respiratory rate, and oxygen saturation were continuously monitored throughout the experiments. Fluid balance was maintained by continuous infusion of saline.
PET measurements were conducted using a High Resolution Research Tomograph (HRRT) PET scanner (Siemens Molecular Imaging, Knoxville, TN). […] List-mode data were reconstructed with a series of 34 frames (20 s × 9, 1 min × 3, 3 min × 5, and 6 min × 17), using the ordinary Poisson-3D-ordered subset expectation maximization (OP-3D-OSEM) algorithm with 10 iterations and 16 subsets including modeling of the point spread function (PSF).
An automated blood sampling system (ABSS) was used to measure the continuous radioactivity for the first 3 min after the radioligand injection. Then, blood sampling was performed manually for the measurement of metabolism and radioactivity at 5, 15, 30, 60, 90, and 120 min after the injection. A reversed-phase radio-HPLC method was used to determine the amount of unchanged ^18F-AZD9272 and its radioactive metabolites in NHP plasma.[35]
The regions of interest (ROIs) were delineated manually on the MRI images of each NHP for the anterior cingulate cortex, amygdala, caudate, cerebellum, hippocampus, insular cortex, occipital cortex, prefrontal cortex, putamen, temporal cortex, thalamus, ventral midbrain, and ventral striatum. The MRI of the individual NHP was co-registered to summed PET images of the whole measurement. By applying the co-registration parameters to ROIs, the time–activity curves of brain regions were generated from dynamic PET data.
As the main outcome measure, the total distribution volume (VT) defined as (K1/k2)(k3/k4 + 1) by the two tissue compartment (2TC) model and Logan graphical analysis (GA) was calculated with the metabolite corrected plasma radioactivity as the input function. […] The procedure has been described in detail in a previous publication on [^11C]AZD9272 binding.[33]

[1] = Stability of formulated radioligand in PBS (analytical radio-HPLC); format: physicochemical
Experimental: The radiochemical purity, identity, and stability of ^18F-AZD9272 was determined by using an analytical HPLC system which included a ACE RP column (C18, 3.9 Ø × 250 mm, 5 μm particle size), Merck-Hitatchi L-7100 Pump, L-7400 UV detector, and GM tube for radioactivity detection (VWR International). The mobile phase CH3CN/0.1% TFA with a gradient HPLC method (10–90% in 8 min) and flow rate of 3 mL/min was used to elute the product. The effluent was monitored with a UV absorbance detector (λ = 270 nm) coupled to a radioactive detector (b-flow, Beckman, Fullerton, CA). The retention time (Rt) of ^18F-AZD9272 was 4–5 min. The identity of ^18F-AZD9272 was confirmed by using HPLC with the coinjection of the authentic nonradioactive AZD9272 (3-fluoro-5-(3-(5-fluoropyridin-2-yl)-1,2,4-oxadiazol-5-yl)benzonitrile) standard.

In the case of `N#Cc1cc(F)cc(-c2nc(-c3ccc([18F])cn3)no2)c1` [^18F-AZD9272, 3-fluoro-5-(3-(5-[^18F]fluoropyridin-2-yl)-1,2,4-oxadiazol-5-yl)benzonitrile], the VT (mGluR5; ACC anterior cingulate cortex, 2TC, NHP1) is reported as 11.5 mL/cm^3, the VT (mGluR5; ACC anterior cingulate cortex, 2TC, NHP2) is reported as 11.2 mL/cm^3 and the VT (mGluR5; ACC anterior cingulate cortex, 2TC, mean) is reported as 11.4 mL/cm^3. The VT (mGluR5; ACC anterior cingulate cortex, GA, NHP1) was 10.2 mL/cm^3, the VT (mGluR5; ACC anterior cingulate cortex, GA, NHP2) was 10.7 mL/cm^3 and the VT (mGluR5; ACC anterior cingulate cortex, GA, mean) was 10.4 mL/cm^3. For the same molecule, the VT (mGluR5; AMG amygdala, 2TC, NHP1) was 15.0 mL/cm^3, the VT (mGluR5; AMG amygdala, 2TC, NHP2) was 14.4 mL/cm^3 and the VT (mGluR5; AMG amygdala, 2TC, mean) was 14.7 mL/cm^3. The VT (mGluR5; AMG amygdala, GA, NHP1) was 12.8 mL/cm^3, the VT (mGluR5; AMG amygdala, GA, NHP2) was 13.1 mL/cm^3 and the VT (mGluR5; AMG amygdala, GA, mean) was 13.0 mL/cm^3. It also gave a VT (mGluR5; CAU caudate, 2TC, NHP1) of 13.3 mL/cm^3, a VT (mGluR5; CAU caudate, 2TC, NHP2) of 13.7 mL/cm^3 and a VT (mGluR5; CAU caudate, 2TC, mean) of 13.5 mL/cm^3. For the same molecule, the VT (mGluR5; CAU caudate, GA, NHP1) was 12.1 mL/cm^3, the VT (mGluR5; CAU caudate, GA, NHP2) was 13.0 mL/cm^3 and the VT (mGluR5; CAU caudate, GA, mean) was 12.6 mL/cm^3. For the same molecule, the VT (mGluR5; CER cerebellum, 2TC, NHP1) was 7.1 mL/cm^3, the VT (mGluR5; CER cerebellum, 2TC, NHP2) was 7.9 mL/cm^3 and the VT (mGluR5; CER cerebellum, 2TC, mean) was 7.5 mL/cm^3. It also gave a VT (mGluR5; CER cerebellum, GA, NHP1) of 6.6 mL/cm^3, a VT (mGluR5; CER cerebellum, GA, NHP2) of 7.6 mL/cm^3 and a VT (mGluR5; CER cerebellum, GA, mean) of 7.1 mL/cm^3. The VT (mGluR5; HIP hippocampus, 2TC, NHP1) was 10.7 mL/cm^3, the VT (mGluR5; HIP hippocampus, 2TC, NHP2) was 11.9 mL/cm^3 and the VT (mGluR5; HIP hippocampus, 2TC, mean) was 11.3 mL/cm^3. For the same molecule, the VT (mGluR5; HIP hippocampus, GA, NHP1) was 9.7 mL/cm^3, the VT (mGluR5; HIP hippocampus, GA, NHP2) was 11.2 mL/cm^3 and the VT (mGluR5; HIP hippocampus, GA, mean) was 10.5 mL/cm^3. The VT (mGluR5; INS insular cortex, 2TC, NHP1) was 9.0 mL/cm^3, the VT (mGluR5; INS insular cortex, 2TC, NHP2) was 10.0 mL/cm^3 and the VT (mGluR5; INS insular cortex, 2TC, mean) was 9.5 mL/cm^3. It also gave a VT (mGluR5; INS insular cortex, GA, NHP1) of 8.5 mL/cm^3, a VT (mGluR5; INS insular cortex, GA, NHP2) of 9.6 mL/cm^3 and a VT (mGluR5; INS insular cortex, GA, mean) of 9.1 mL/cm^3. The “Regional brain uptake (PET)” value (mGluR5; NHP brain) was “highest in the striatum, lower in the thalamus and frontal cortex, and lowest in the cerebellum and occipital cortex”, the VT (mGluR5; OC occipital cortex, 2TC, NHP1) was 5.4 mL/cm^3 and the VT (mGluR5; OC occipital cortex, 2TC, NHP2) was 6.0 mL/cm^3. For the same molecule, the VT (mGluR5; OC occipital cortex, 2TC, mean) was 5.7 mL/cm^3, the VT (mGluR5; OC occipital cortex, GA, NHP1) was 5.5 mL/cm^3 and the VT (mGluR5; OC occipital cortex, GA, NHP2) was 5.7 mL/cm^3. For the same molecule, the VT (mGluR5; OC occipital cortex, GA, mean) was 5.6 mL/cm^3, the VT (mGluR5; PFC prefrontal cortex, 2TC, NHP1) was 9.6 mL/cm^3 and the VT (mGluR5; PFC prefrontal cortex, 2TC, NHP2) was 9.5 mL/cm^3. It also gave a VT (mGluR5; PFC prefrontal cortex, 2TC, mean) of 9.5 mL/cm^3, a VT (mGluR5; PFC prefrontal cortex, GA, NHP1) of 8.9 mL/cm^3 and a VT (mGluR5; PFC prefrontal cortex, GA, NHP2) of 9.3 mL/cm^3. For the same molecule, the VT (mGluR5; PFC prefrontal cortex, GA, mean) was 9.1 mL/cm^3, the VT (mGluR5; PUT putamen, 2TC, NHP1) was 9.5 mL/cm^3 and the VT (mGluR5; PUT putamen, 2TC, NHP2) was 10.7 mL/cm^3. It also gave a VT (mGluR5; PUT putamen, 2TC, mean) of 10.1 mL/cm^3, a VT (mGluR5; PUT putamen, GA, NHP1) of 9.3 mL/cm^3 and a VT (mGluR5; PUT putamen, GA, NHP2) of 10.1 mL/cm^3. It also gave a VT (mGluR5; PUT putamen, GA, mean) of 9.7 mL/cm^3, a VT (mGluR5; TC temporal cortex, 2TC, NHP1) of 7.6 mL/cm^3 and a VT (mGluR5; TC temporal cortex, 2TC, NHP2) of 8.4 mL/cm^3. For the same molecule, the VT (mGluR5; TC temporal cortex, 2TC, mean) was 8.0 mL/cm^3, the VT (mGluR5; TC temporal cortex, GA, NHP1) was 7.2 mL/cm^3 and the VT (mGluR5; TC temporal cortex, GA, NHP2) was 8.1 mL/cm^3. The VT (mGluR5; TC temporal cortex, GA, mean) was 7.7 mL/cm^3, the VT (mGluR5; THA thalamus, 2TC, NHP1) was 11.7 mL/cm^3 and the VT (mGluR5; THA thalamus, 2TC, NHP2) was 11.4 mL/cm^3. The VT (mGluR5; THA thalamus, 2TC, mean) was 11.6 mL/cm^3, the VT (mGluR5; THA thalamus, GA, NHP1) was 10.6 mL/cm^3 and the VT (mGluR5; THA thalamus, GA, NHP2) was 10.8 mL/cm^3. It also gave a VT (mGluR5; THA thalamus, GA, mean) of 10.7 mL/cm^3, a VT (mGluR5; VM ventral midbrain, 2TC, NHP1) of 11.0 mL/cm^3 and a VT (mGluR5; VM ventral midbrain, 2TC, NHP2) of 8.9 mL/cm^3. For the same molecule, the VT (mGluR5; VM ventral midbrain, 2TC, mean) was 9.9 mL/cm^3, the VT (mGluR5; VM ventral midbrain, GA, NHP1) was 9.1 mL/cm^3 and the VT (mGluR5; VM ventral midbrain, GA, NHP2) was 8.4 mL/cm^3. It also gave a VT (mGluR5; VM ventral midbrain, GA, mean) of 8.8 mL/cm^3, a VT (mGluR5; VST ventral striatum, 2TC, NHP1) of 17.3 mL/cm^3 and a VT (mGluR5; VST ventral striatum, 2TC, NHP2) of 17.3 mL/cm^3. It also gave a VT (mGluR5; VST ventral striatum, 2TC, mean) of 17.3 mL/cm^3, a VT (mGluR5; VST ventral striatum, GA, NHP1) of 14.5 mL/cm^3 and a VT (mGluR5; VST ventral striatum, GA, NHP2) of 15.6 mL/cm^3. For the same molecule, the VT (mGluR5; VST ventral striatum, GA, mean) was 15.1 mL/cm^3, the “Maximum whole brain radioactivity concentration” value (mGluR5; two cynomolgus monkeys (n = 2), i.v.) was 4.9–6.7 % of the injected dose and the “Radiochemical purity after storage (stability)” value ([1]; 2 h after formulation in sterile phosphate buffered solution (pH = 7.4)) was > 99%. The “Stability in PBS buffered solution” value ([1]; pH = 7.4, duration of 120 min) was “stable”.
